{"source": "patent US12527832B2", "about": "“Enriched Withania somnifera based dietary composition and a method thereof” (priority 2015, dated 2026)", "key": {"Swiss albino mice": {"test_system": "Swiss albino mice", "experiment": "Pentobarbital induced sleep activity", "format": "in vivo", "details": "1 mg/kg", "description": "Swiss albino mice weighing 25-30 gm were used for the study.\nThirty minutes later, pentobarbital 40 mg/kg body weight was administered to each mouse to induce sleep. The onset time of sleep was recorded for all the animals. After induction of sleep, mice were placed in the inverted position and when sedation was over, the time point when the mice returned to their normal posture was noted. The time interval between dosing and the start of sleep was recorded as latency time."}, "Albino Wistar rats": {"test_system": "Albino Wistar rats", "experiment": "Anoxia stress tolerance (AST) test", "format": "in vivo, rat", "details": "p.o. daily", "description": "Albino Wistar rats of either sex weighing 150-220 g were selected and divided into seven groups of six each. Doses in each group were calculated thus, only 5 mg/Kg body weight withanolide were administered to each animal. The test was conducted as per the protocol disclosed in U.S. Pat. No. 9,987,323B2.\nAnimals were treated as shown above for the 3 weeks. At the end of 1st, 2nd and 3rd week i.e., on 7th, 14th and 21st day 1 h after the treatment stress was induced by placing each animal individually in the hermetic vessel of 1 L capacity to record anoxia tolerance time. The time duration of entry of the animal into the hermetic vessel and the appearance of the first convulsion was taken as time of anoxia."}, "Swiss mice": {"test_system": "Swiss mice", "experiment": "Swimming endurance test", "format": "in vivo", "details": "8th day after 7 days once daily p.o.", "description": "Extracts were given to the mice, once daily for a period of 7 days. On 8th day the mice were subjected to swimming stress by keeping them in propylene tank of dimension (37×37×30 cm), filled with water to a height of 25 cm. The […] were allowed to swim till complete exhaustion and the endpoint was taken when the animal started drowning. The mean swimming time for each group was calculated."}, "GABA receptors": {"test_system": "GABA receptors", "experiment": "Expression of GABA receptors in rat glioblastoma (C6) cell line", "format": "cell-based", "details": "C6 cells, positive control 1 μg/mL"}, "Wistar rats": {"test_system": "Wistar rats", "experiment": "Carrageenan induced paw edema model", "format": "in vivo, rat", "details": "single p.o. dose", "description": "Anti-inflammatory activity of Withania somnifera extracts was assessed by carrageenan induced paw edema model in rats. Wistar rats were divided into seven groups (n=5). Following treatment was given to the rats as single dose; • Group 1: Control (Received only vehicle, 1% Tween 80 v/v p.o.) • Group II: Powdered Withania somnifera plant parts minimum 0.4% withanolides—Dosage 1750 mg/kg p.o. • Group III: Withania somnifera plant extract standardized minimum 2.5% withanolides (WG2.5)—Dosage 200 mg/kg p.o. • Group IV: Withania somnifera plant extract standardized minimum 5% withanolides (WG5)—Dosage 100 mg/kg p.o. • Group V: Withania somnifera plant extract standardized minimum 10% Withanolide Glycoside (WG10)—Dosage 50 mg/kg p.o. • Group VI: Sample 2 standardized with minimum 35±3% Withanolide Glycoside (WG 35)—Dosage 14 mg/kg p.o). • Group VII: Indomethacin (10 mg/kg p.o.).\nAfter 30 minutes of extracts 0.1 mL of carrageenan (1% in normal saline) was injected into the right hind paw of each rat. The paw volume was measured plethysmographically at 0, 0.5, 1, 2, 3, 4 and 5th hour after challenge. The percentage inhibition of edema was calculated for each group with respect to the vehicle received control group of animals."}, "[1]": {"experiment": "Bioavailability of Withaferin A and Withanoside IV in animals", "format": "in vivo", "details": "rat plasma, p.o.; standards 15 mg/kg, WG35 500 mg/kg", "description": "Albino rats weighing 200-220 gm of both sexes were used for the study. The rats were kept individually in polypropylene cages and maintained in a well-ventilated room under normal and uniform conditions like 12 hours light and dark cycle and at 26±2° C. Water and feed were given ad-libitum. After the acclimatization period, the animals were fasted overnight before administration of test products.\nImmediately after drug administration, 0.5 ml of blood was withdrawn at 0, 0.5, 1, 1.5, 2, 4, 6, 8 and 12 hours. Plasma samples were separated and Withaferin A and Withanoside IV were detected."}, "[2]": {"details": "rats, administered orally; cited from earlier work"}}}
{"smiles": "CN1C(=O)CN=C(c2ccccc2)c2cc(Cl)ccc21", "note": "[Diazepam]", "values": [{"measurement": "Duration of sleep", "setting": "Swiss albino mice; pentobarbital 40 mg/kg", "value": 99}, {"measurement": "Onset time of sleep (latency time)", "setting": "Swiss albino mice; pentobarbital 40 mg/kg", "value": 27, "unit": "min"}, {"measurement": "Percentage decrease in onset time of sleep", "setting": "Swiss albino mice; vs control", "value": 47, "unit": "%"}, {"measurement": "Percentage increase in duration of sleep", "setting": "Swiss albino mice; vs control", "value": 74, "unit": "%"}, {"measurement": "Duration of anoxia stress tolerance", "setting": "Albino Wistar rats; 1st week", "value": 34.40, "unit": "min"}, {"measurement": "Duration of anoxia stress tolerance", "setting": "Albino Wistar rats; 2nd week", "value": 35.1, "unit": "min"}, {"measurement": "Duration of anoxia stress tolerance", "setting": "Albino Wistar rats; 3rd week", "value": 37.00, "unit": "min"}, {"measurement": "Swimming time", "setting": "Swiss mice", "value": 58.67, "unit": "min"}]}
{"smiles": "NCCCC(=O)O", "note": "[GABA, Gamma aminobutyric acid]", "values": [{"measurement": "Gene expression of GABA receptors, fold increase (cell control = 1.00)", "setting": "GABA receptors", "value": 1.00}]}
{"smiles": "COc1ccc2c(c1)c(CC(=O)O)c(C)n2C(=O)c1ccc(Cl)cc1", "note": "[Indomethacin]", "values": [{"measurement": "Percentage inhibition of paw oedema", "setting": "Wistar rats; 0.5 hr", "value": 28, "unit": "%"}, {"measurement": "Percentage inhibition of paw oedema", "setting": "Wistar rats; 1 hr", "value": 65, "unit": "%"}, {"measurement": "Percentage inhibition of paw oedema", "setting": "Wistar rats; 2 hr", "value": 80, "unit": "%"}, {"measurement": "Percentage inhibition of paw oedema", "setting": "Wistar rats; 3 hr", "value": 86, "unit": "%"}]}
{"smiles": "CC1=C(CO)C(=O)O[C@@H]([C@@H](C)[C@H]2CC[C@H]3[C@@H]4C[C@H]5O[C@]56[C@@H](O)C=CC(=O)[C@]6(C)[C@H]4CC[C@]23C)C1", "note": "[Withaferin A]", "values": [{"measurement": "Withaferin A AUC (0-12 h)", "setting": "[1]", "value": 30.2, "unit": "ng·h/mL"}, {"measurement": "Withaferin A Cmax", "setting": "[1]", "value": 28, "unit": "ng/mL"}]}
{"smiles": "CC1=C(C)C(=O)O[C@@H]([C@](C)(O)[C@H]2CC[C@H]3[C@@H]4[C@@H]5O[C@@H]5[C@@]5(O)CC=CC(=O)[C@]5(C)[C@H]4CC[C@]23C)C1", "note": "[Withanolide A]", "values": [{"measurement": "Absolute bioavailability of withanolide A in plasma", "setting": "[2]", "value": "less than 5%"}]}
{"smiles": "CC1=C(CO)C(=O)O[C@@H]([C@@H](C)[C@H]2CC[C@H]3[C@@H]4CC=C5C[C@@H](O[C@@H]6O[C@H](CO[C@@H]7O[C@H](CO)[C@@H](O)[C@H](O)[C@H]7O)[C@@H](O)[C@H](O)[C@H]6O)C[C@H](O)[C@]5(C)[C@H]4CC[C@]23C)C1", "note": "[Withanoside IV]", "values": [{"measurement": "Withaferin A AUC (0-12 h)", "setting": "[1]", "value": 18, "unit": "ng·h/mL"}, {"measurement": "Withaferin A Cmax", "setting": "[1]", "value": 13.5, "unit": "ng/mL"}, {"measurement": "Withanoside IV AUC (0-12 h)", "setting": "[1]", "value": 14, "unit": "ng·h/mL"}, {"measurement": "Withanoside IV Cmax", "setting": "[1]", "value": 10.2, "unit": "ng/mL"}]}
